The source made the active and inactive calls. The calls are words filed in the database; no cut-off is given here.
Legend:
Acetylcholinesterase = Acetylcholinesterase (Electrophorus electricus, UniProt O42275); experiment: Inhibition of electric eel AChE assessed as inhibition constant using acetylthiocholine as substrate measured for 0.5 to 1.5 mins by Ellman's method
[1] = Cytotoxicity against human U-87 MG cells assessed as cell viability at 10 uM incubated for 24 hrs by MTT assay; assay type: cell-based, U-87MG ATCC; details: read-out: Activity
[2] = Metal chelating activity assessed as compound-Zn2+ complex formation at 2 mM in presence of Zn(NO3)2.6H2O by UV-vis spectrophotometric titration analysis
[3] = Metal chelating activity assessed as compound-Cu2+ complex formation at 2 mM in presence of CuSO4.5H2O by UV-vis spectrophotometric titration analysis
[4] = Metal chelating activity assessed as compound-Fe3+ complex formation by measuring mole fraction that causes maximum variation in absorbance in presence of FeCl3.6H2O by Job's plot analysis
[5] = Metal chelating activity assessed as compound-Fe3+ complex formation at 2 mM in presence of FeCl3.6H2O by UV-vis spectrophotometric titration analysis
[6] = Metal chelating activity assessed as compound-Cu2+ complex formation by measuring mole fraction that causes maximum variation in absorbance in presence of CuSO4.5H2O by Job's plot analysis
Cholinesterase = Cholinesterase (Equus caballus, UniProt P81908); experiment: Inhibition of equine BChE assessed as inhibition constant using acetylthiocholine as substrate measured for 0.5 to 1.5 mins by Ellman's method
Chain of Cholinesterase (P81908 whole entry): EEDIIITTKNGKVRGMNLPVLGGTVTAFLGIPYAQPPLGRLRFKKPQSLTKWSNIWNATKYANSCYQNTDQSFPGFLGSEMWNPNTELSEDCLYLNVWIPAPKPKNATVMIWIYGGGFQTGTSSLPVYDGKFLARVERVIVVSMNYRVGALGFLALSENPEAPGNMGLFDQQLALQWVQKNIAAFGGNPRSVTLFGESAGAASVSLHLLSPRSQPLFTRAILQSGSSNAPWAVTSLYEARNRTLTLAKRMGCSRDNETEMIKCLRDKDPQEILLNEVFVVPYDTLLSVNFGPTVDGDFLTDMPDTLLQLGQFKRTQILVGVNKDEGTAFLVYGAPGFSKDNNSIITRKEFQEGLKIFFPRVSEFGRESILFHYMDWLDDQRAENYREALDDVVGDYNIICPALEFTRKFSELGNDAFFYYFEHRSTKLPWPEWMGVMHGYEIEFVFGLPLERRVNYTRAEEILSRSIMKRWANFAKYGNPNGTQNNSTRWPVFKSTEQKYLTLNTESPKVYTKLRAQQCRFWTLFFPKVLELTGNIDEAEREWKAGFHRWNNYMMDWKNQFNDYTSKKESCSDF

[7] = target: Cholinesterase (Equus caballus) (UniProt P81908); experiment: Mixed type inhibition of equine BChE using varying level of acetylthiocholine as substrate by Dixon plot analysis
Chain of Cholinesterase (Equus caballus) (P81908 whole entry): as above

[8] = Metal chelating activity assessed as compound-Fe3+ complex formation at 1.7 mM in presence of FeCl3.6H2O by UV-vis spectrophotometric titration analysis

Chain of Acetylcholinesterase (O42275 whole entry): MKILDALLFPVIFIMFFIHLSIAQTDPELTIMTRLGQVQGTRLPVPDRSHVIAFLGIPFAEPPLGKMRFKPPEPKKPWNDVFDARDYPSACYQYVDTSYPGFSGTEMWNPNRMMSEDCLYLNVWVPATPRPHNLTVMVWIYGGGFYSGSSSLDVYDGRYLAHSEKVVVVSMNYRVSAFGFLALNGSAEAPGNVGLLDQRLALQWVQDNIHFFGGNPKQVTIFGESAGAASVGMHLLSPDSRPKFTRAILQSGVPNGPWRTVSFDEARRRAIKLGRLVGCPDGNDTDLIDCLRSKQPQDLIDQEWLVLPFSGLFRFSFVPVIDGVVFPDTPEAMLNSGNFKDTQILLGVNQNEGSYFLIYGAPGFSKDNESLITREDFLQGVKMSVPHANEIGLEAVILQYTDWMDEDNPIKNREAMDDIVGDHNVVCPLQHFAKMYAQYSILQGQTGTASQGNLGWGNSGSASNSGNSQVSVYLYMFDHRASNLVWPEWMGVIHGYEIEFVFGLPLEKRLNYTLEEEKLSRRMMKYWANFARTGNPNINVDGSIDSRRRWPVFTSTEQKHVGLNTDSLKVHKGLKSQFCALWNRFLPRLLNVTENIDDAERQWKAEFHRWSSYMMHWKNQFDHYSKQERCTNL

Row | SMILES | Ki (Acetylcholinesterase) [nM] | viability at 24 h, 10 µM [1] [%] | Activity [2] | Activity [3] | Activity (mole fraction) [4] | Activity [5] | Activity (mole fraction) [6] | Ki (Cholinesterase) [nM] | inhibition [7] | Activity [8]
1 | Cc1c(O)c(=O)ccn1CCCCCCNCc1ccccc1 | 1370 | > 75 | inactive | Active | 0.53 | Active | 0.37 |  |  | 
2 | Cc1c(OCc2ccccc2)c(=O)ccn1CCCCCCNc1nccc(Cl)n1 |  | > 75 |  |  |  | Active |  | 1080 | Active | 
3 | Cc1c(O)c(=O)ccn1CCCCCCNc1ccnc(NCc2ccccc2)n1 |  | > 75 | Active |  | 0.5 |  | 0.64 | 920 | Active | 
4 | Cc1c(OCc2ccccc2)c(=O)ccn1CCCCCCNc1ccnc(NCc2ccccc2)n1 |  | > 75 |  | Active | 0.67 | Active |  | 258 | Active | 
5 | Cc1c(OCc2ccccc2)c(=O)ccn1CCCCNCc1ccccc1 |  | > 75 |  |  |  |  |  | 450 | Active | 
6 | COc1ccccc1CNCCCCCCn1ccc(=O)c(OCc2ccccc2)c1C | 2790 | > 75 |  |  |  |  |  | 910 | Active | 
7 | Cc1c(OCc2ccccc2)c(=O)ccn1CCCCCCNCc1ccccc1 | 788 | > 75 | inactive |  | 0.52 |  |  | 2360 | Active | Active
8 | COc1ccccc1CNCCCCCCn1ccc(=O)c(O)c1C | 1340 | > 75 |  |  |  |  |  |  |  | 
9 | Cc1c(OCc2ccccc2)c(=O)ccn1CCCCCCNc1ccccn1 |  | > 75 |  |  | 0.7 | Active |  | 182 | Active | 

Reference: ChEMBL document CHEMBL4765309, “New deferiprone derivatives as multi-functional cholinesterase inhibitors: design, synthesis and in vitro evaluation” (Eur J Med Chem, 2020)
